Source: BindingDB's records for PubMed 1848629 (Georgetown University, 1991)
Values joined by “and” are separate entries in the source; they are usually repeats but may differ in a detail not shown here. Equal entries are not always repeated.

These compounds were tested against Gamma-aminobutyric acid type B receptor subunit 1 (UniProt Q9Z0U4).
Gamma-aminobutyric acid type B receptor subunit 1, sequence (Q9Z0U4 whole entry): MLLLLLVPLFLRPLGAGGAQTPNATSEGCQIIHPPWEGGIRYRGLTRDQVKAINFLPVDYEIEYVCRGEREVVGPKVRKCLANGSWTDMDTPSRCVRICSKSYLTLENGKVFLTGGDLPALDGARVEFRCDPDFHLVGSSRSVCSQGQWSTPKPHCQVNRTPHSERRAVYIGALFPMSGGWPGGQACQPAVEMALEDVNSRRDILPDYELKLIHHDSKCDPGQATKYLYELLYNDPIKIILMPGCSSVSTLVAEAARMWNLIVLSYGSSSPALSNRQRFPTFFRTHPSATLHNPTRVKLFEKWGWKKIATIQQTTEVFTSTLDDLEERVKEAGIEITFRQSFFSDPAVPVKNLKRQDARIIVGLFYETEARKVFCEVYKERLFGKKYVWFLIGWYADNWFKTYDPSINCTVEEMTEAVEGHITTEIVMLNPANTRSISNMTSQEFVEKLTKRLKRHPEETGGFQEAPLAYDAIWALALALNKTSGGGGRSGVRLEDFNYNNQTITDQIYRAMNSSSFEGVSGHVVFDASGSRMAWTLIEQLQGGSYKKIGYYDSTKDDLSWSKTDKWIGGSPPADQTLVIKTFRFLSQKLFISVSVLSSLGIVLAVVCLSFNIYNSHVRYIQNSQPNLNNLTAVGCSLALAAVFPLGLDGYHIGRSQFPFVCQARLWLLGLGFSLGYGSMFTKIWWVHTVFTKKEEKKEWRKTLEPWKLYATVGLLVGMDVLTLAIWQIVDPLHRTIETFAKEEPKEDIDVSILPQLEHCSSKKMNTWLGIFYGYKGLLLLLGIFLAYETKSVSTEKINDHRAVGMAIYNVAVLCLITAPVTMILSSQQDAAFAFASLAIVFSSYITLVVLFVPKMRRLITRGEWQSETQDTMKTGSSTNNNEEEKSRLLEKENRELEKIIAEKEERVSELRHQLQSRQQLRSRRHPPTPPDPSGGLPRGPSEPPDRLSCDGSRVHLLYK
For CN1C(=O)CN=C(c2ccccc2)c2cc(Cl)ccc21, the Ki was 19 nM and 18 nM and 22 nM and 20 nM and 26 nM.
With Cc1nnc2n1-c1ccc(Cl)cc1C(c1ccccc1)=NC2 the Ki was 4.5 nM and 5 nM and 6.7 nM and 5.3 nM and 8 nM.
With CN1C(=O)CN=C(c2ccccc2F)c2cc([N+](=O)[O-])ccc21 [Flunitrazepam] the Ki was 8.8 nM and 10 nM and 6.1 nM and 5 nM and 7.5 nM.
CC[C@@H](C)N(C)C(=O)c1cc2ccccc2c(-c2ccccc2Cl)n1 [PK 11195] showed a Ki of 1000 nM.
In the case of CN1C(=O)CN=C(c2ccc(Cl)cc2)c2cc(Cl)ccc21 [Ro5-4864], the Ki is reported as 1000 nM.

Each compound was assayed against Gamma-aminobutyric acid (GABA) B receptor 1 (Rattus norvegicus, UniProt Q6MFX8).
Gamma-aminobutyric acid (GABA) B receptor 1, sequence (Q6MFX8 whole entry): as the sequence (Q9Z0U4 whole entry) above
With Cc1nnc2ccc(-c3cccc(C(F)(F)F)c3)nn12 the Ki was 15 nM and 12 nM and 100 nM.
For CCOC(=O)c1ncn2c1CN(C)C(=O)c1cc(F)ccc1-2 [ethyl 12-fluoro-8-methyl-9-oxo-2,4,8-triazatricyclo[8.4.0.0^{2,6}]tetradeca-1(14),3,5,10,12-pentaene-5-carboxylate], the Ki was 1 nM and 2 nM and 1.9 nM.
